Laboratory results reported in PubChem BioAssay AID179 (DTP/NCI, 2004).
Several values for one entry are separate records, joined by “and”; a condition that tells them apart may be missing. Identical values can stand only once. Activity calls are given as the source filed them.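 The calls were made as follows: active = compounds giving half or more protection of infected cells from virus-caused growth loss, again on retest; inactive = the rest.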 Where a SMILES comes first, the peptide text is derived from it. The star is where a group is joined. Fmoc = O=C(OCC1c2ccccc2-c2ccccc21)*; Boc = CC(C)(C)OC(=O)*

System: CEM cells HIV-1 protection, formazan growth assay
Test: NCI AIDS Antiviral Assay
Details: for IC50: measured here: growth of uninfected CEM cells
Procedure, shortened: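 Steps: treat uninfected and HIV-1-infected human CEM cells at five drug levels; quantify growth by soluble formazan; retest any compound reaching 50% protection; classify actives from the retest.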

| SMILES | EC50 [µM] | IC50 | outcome |
| --- | --- | --- | --- |
| O=C1N=C(c2ccccc2)O/C1=C\c1ccccc1 | > 200 | > 200 µM |  |
| CC(C)N=C(NC#N)NS(=O)(=O)c1cnccc1Nc1ccc(Cl)cc1 | > 200 | > 200 µM |  |
| CCCCCCCCCCCCC(Br)C(=O)SCCNC(=O)CCNC(=O)[C@@H](O)C(C)(C)COP(=O)(O)OP(=O)(O)OCC1OC(n2cnc3c(N)ncnc32)C(O)C1OP(=O)(O)O (stereo partly drawn) |  |  | inactive |
| CC(C)(C)C(=O)/C=C/c1ccccc1F | > 49 | > 49 µM |  |
| Cc1cc(S(=O)(=O)Nc2nc(N)nc3nc4ccccc4n23)c(S)cc1Cl | 95.5 | 380 µM |  |
| COc1cc(Br)c(C=Nc2cccc3ccc(OS(=O)(=O)c4ccc([N+](=O)[O-])cc4)cc23)cc1OC | > 17.4 | > 17.4 µM |  |
| COC1OC(C(C)Br)C2OC(C)(C)OC12 (stereo not drawn) | > 200 | > 200 µM |  |
| Cc1ccc(C2=Nc3ccccc3SC(c3cccc4c3OCO4)C2)cc1 (stereo not drawn) | > 14.1 | > 14.1 µM |  |
| O=C(c1ccc(Cl)cc1)C1N=NCC1c1ccccc1 (stereo not drawn) | > 200 | 75.9 µM |  |
| COC(=O)CC1C(C(C)(OC)OC)C(=O)N1[Si](C)(C)C(C)(C)C (stereo not drawn) | > 363 | > 363 µM |  |
| CN1CCC(OC(=O)Oc2ccccc2)(c2ccccc2)CC1 | > 200 | 30.9 µM |  |
| COC(=O)c1cc(=O)n(Cc2ccco2)c(=Nc2ccccc2)s1 | > 100 | 13.8 µM |  |
| CC1CC12OC(=O)N(c1cc(Cl)cc(Cl)c1)C2=O (stereo not drawn) | > 200 | 31.6 µM |  |
| C/C(Cc1[nH]nc2c1c(=O)oc1ccc3ccccc3c12)=N\N | > 200 | 12.6 µM |  |
| COc1ccc(-c2cc(=O)c3c(O)c(O)c(OC)cc3o2)cc1O | > 550 | 240 µM |  |
| COc1ccc(CCn2nccc2C)cc1 | > 200 | > 200 µM |  |
| Cc1nnc(N)nc1C/C=C/C(C)Sc1ccc(Cl)cc1 (stereo not drawn) | > 200 | 6.61 µM |  |
| C[C@@H]1OC2(O)[C@@H]3CCCN3C(=O)N(Cc3ccccc3)N2C1=O (stereo partly drawn) | > 200 | > 200 µM |  |
| S=c1[nH]c2ccccc2o1 | > 200 | 166 µM |  |
| COc1ccc(-c2c[se]c(=S)s2)cc1 | > 18.2 | > 18.2 µM |  |
| O=C1c2ccccc2C(=O)N1CCc1ncc(-c2ccccc2)[nH]1 | > 200 | > 200 µM |  |

| SMILES | EC50 [µM] | IC50 | outcome |
| --- | --- | --- | --- |
| O=c1c2cc3c(=O)n4c(cc(-c5ccccc5)c5cc(Cl)ccc54)nc3cc2nc2cc(-c3ccccc3)c3cc(Cl)ccc3n12 | > 100 | > 100 µM |  |
| O=C(/C=C/c1ccccc1)CCC1C(=O)c2ccccc2C1=O | > 23.4 | > 23.4 µM |  |
| COc1cc(C(=O)O)c2c(c1C)OC(=O)c1c(C)cc(O)c(C=O)c1O2 | > 83.2 | 36.3 µM |  |
| CC12CCC3c4ccc(OS(=O)(=O)O)cc4CCC3C1CC(O)C2O (stereo not drawn) |  |  | inactive |
| CCOC(=O)/C=C/c1ccccc1Cl | > 33.9 | > 33.9 µM |  |
| CC(C)(C)OC(=O)NCCCCC(NC(=O)OCC1c2ccccc2-c2ccccc21)C(=O)N1CCCC1C(=O)NCC(N)=O (stereo not drawn) (Fmoc-Lys(Boc)-Pro-Gly-NH2; configuration not given here) | 69.2 | 91.2 µM |  |
| CCN(CC)C1=Nc2ccccc2-n2ccnc2C1 |  |  | inactive |
| CC(=O)/C=C/CCC1CCC(=O)C1(C)C(=O)OC(C)(C)C (stereo not drawn) | > 115 | 39.8 µM |  |
| C/C=C(/C)C(=O)O[C@H](C[C@@H](C)[C@H]1CC(c2ccoc2)OC1=O)[C@@]1(C)C(=O)CCC2O[C@]21C (stereo partly drawn) | > 200 | > 200 µM |  |
| COc1c(C(C)C)cc2c3c1OC(=O)[C@@]31CCCC(C)(C)C1CC2 (stereo partly drawn) | > 200 | 30.9 µM |  |
| CC1(C)OP(=O)(O)C=C1[Se]c1ccccc1 | > 324 | > 324 µM |  |
| CC(=O)N1c2ccccc2Sc2c1ccc1ccccc21 | > 200 | 45.7 µM |  |
| O=C(NC/C(Br)=C/Br)Nc1cnc2ccccc2c1 | > 200 | 81.3 µM |  |
| O=[N+]([O-])c1ccccc1N=Cc1ccccc1O | > 200 | > 200 µM |  |
| CC1=C(C(=O)Nc2ccccc2C)C(/C=C/c2ccccc2)C(C(=O)Nc2ccccc2C)=C(C)N1 |  |  | inactive |
| O=C(O)c1c(O)ccc(N=Nc2ccc(N=Nc3ccc4c(S(=O)(=O)O)cccc4c3O)c3ccccc23)c1O | > 100 | > 100 µM |  |
| CCCC(C(=O)OCCN(CC)CC)(c1ccccc1)c1ccccc1 | > 200 | 102 µM and 37.2 µM |  |
| O=C1Nc2ccccc2N=CC1NC(=O)C(c1ccccc1)c1ccccc1 (stereo not drawn) | > 257 | 224 µM |  |
| CC(C)(C)N/N=C(\C(=O)Nc1nc(=S)[nH][nH]1)C1C(=O)Nc2ccccc2S1=O (stereo not drawn) |  |  | inactive |
| COc1ccc(C2C(C#N)=C(S)N(C3OC(COC(C)=O)C(OC(C)=O)C(OC(C)=O)C3OC(C)=O)C(c3ccccc3)=C2C(C)=O)cc1 (stereo not drawn) | > 200 | 25.1 µM |  |
| NC(N)=NCCCC(NCc1c2ccccc2nc2ccccc12)C(=O)O (stereo not drawn) |  |  | inactive |

| SMILES | EC50 [µM] | IC50 | outcome |
| --- | --- | --- | --- |
| O=C1CCCCC/C1=C\c1cccc([N+](=O)[O-])c1 | > 200 | 23.4 µM |  |
| CC1(C)C(=O)C2(OS(=O)(=O)C(F)(F)F)CCC1C2 (stereo not drawn) | > 200 | > 200 µM |  |
| O=C(CCCl)NNC1=NCCCCN1 | > 200 | > 200 µM |  |
| S=C1C(=Nc2ccccc2)N(C2CCCCC2)C(=NC2CCCCC2)N1c1ccccc1 | > 200 | 141 µM |  |
| Cc1cc(O)c2c(c1)C[C@@H](O)C1=C2C(=O)c2c(O)ccc(OC3CC(O)C(OC4CC(OC5CCC(OC6CC(O)C(OC7CC(OC8CCC(O)C(C)O8)C(O)C(C)O7)C(C)O6)C(C)O5)C(O)C(C)O4)C(C)O3)c2C1=O (stereo partly drawn) | > 43.7 | 0.2 µM |  |
| CNS(=O)(=O)NN(C)S(=O)(=O)c1ccc(OC)cc1 | > 407 | 105 µM |  |
| C[C@]12CC[C@H](O)CC1=CC[C@@H]1[C@@H]2CC[C@]2(C)C(=O)CC[C@@H]12 | > 126 | 83.2 µM |  |
| Nc1nc(C(=O)O)c(N)c(=O)[nH]1 | > 200 | > 200 µM |  |
| CC(C)(C)OC(=O)NCC(=O)NC1C/C(=N\O)c2sccc21 (stereo not drawn) | > 200 | > 200 µM |  |
| CNC(=O)N(C(C)(C)C)S(=O)(=O)c1ccc(Cl)cc1 |  |  | inactive |
| Cc1cccc(N=Nc2c(C)nn(C(=O)CC(=O)Nc3ccccc3)c2C)c1 | > 200 | > 200 µM |  |
| COc1cc(OC)c2c(=O)cc(-c3ccncc3)oc2c1 |  |  | inactive |
| Cc1cc(N(CCC#N)CCC#N)ccc1/C=C/C(=O)Nc1cccc(Cl)c1 | > 66.1 | > 66.1 µM |  |
| Oc1c2cc(Br)cc1CCc1cc(Br)cc(c1O)CC2 | > 200 | 25.7 µM |  |
| CCSc1nc2sc(C)c(C)c2c(=O)n1-c1ccc(C(=O)O)cc1 | > 200 | > 200 µM |  |
| O=P(O)(O)C(NCC(O)CN1CCOCC1)P(=O)(O)O (stereo not drawn) | > 200 | > 200 µM |  |
| O=c1[nH]c(=O)n(C2OC(CF)C(O)C2O)cc1Br (stereo not drawn) | > 200 | > 200 µM |  |
| CCOC(=O)C1=C(C)N2CCOC2(C)C(C(=O)OC)C1c1cccc(Cl)c1 (stereo not drawn) | > 66.1 | > 66.1 µM |  |
| O=C(CN1CCN(c2ccccn2)CC1)N1CCCn2c1nc1ccccc1c2=O | > 200 | > 200 µM |  |
| Cc1cc(NS(=O)(=O)c2ccc(Nc3c4ccccc4nc4c(C(=O)Nc5ccc(S(=O)(=O)O)cc5)cccc34)cc2)no1 | 123 | > 200 µM |  |
| O=S(=O)(SC(S(=O)(=O)c1ccccc1)S(=O)(=O)c1ccccc1)c1ccccc1 | > 537 | 355 µM |  |

| SMILES | EC50 [µM] | IC50 | outcome |
| --- | --- | --- | --- |
| Cc1c(C)c(C)c(-n2c(=O)n(C)c(=O)n2C(C)(C)C)c(C)c1C | > 200 | 3.31 µM |  |
| C=C(C)C(=O)OC1CC2=CC(CC3(C)OC3C3OC(=O)C(=C)C13)OC2=O (stereo not drawn) | > 200 | 2.4 µM |  |
| COC(=O)[C@H](C)N(C)C(=O)[C@H](C)N1[C@@H](c2ccccc2)COC1(C)C | > 200 | > 200 µM |  |
| Cc1c2c(c(C)n1-c1ccccc1)C(=O)N(CCCCN1CCN(c3ccccc3)CC1)C2=O | > 200 | 8.91 µM |  |
| O=S1OCC2(CO1)COS(=O)OC2 (stereo not drawn) | > 200 | 91.2 µM |  |
| CC(C)c1ccc(S(=O)(=O)c2ccc([N+](=O)[O-])cc2[N+](=O)[O-])cc1 | > 200 | 0.851 µM |  |
| CCN(CC)CCNc1ccc2ncn3c4cc(OC)c(OC)c(=O)c4c(O)c1c23 | > 50.1 | 0.589 µM |  |
| CC1(C)C2CCC1(C)C(NC(=O)CCN1CCOCC1)C2 (stereo not drawn) | > 851 | 537 µM |  |
| COc1ccc2c(c1)OC(=O)C(S(=O)(=O)c1ccccc1)C2 (stereo not drawn) | > 295 | > 295 µM |  |
| CCC[CH2][Sn]1([CH2]CCC)[O]CC(COc2c(Cl)cc(Cl)cc2Cl)[O]1 (stereo not drawn) | > 3.98 | 1.86 µM |  |
| O=c1[nH]c(/C=C(\O)c2ccncc2)nc2ccccc12 | > 2.82 | > 2.82 µM |  |
| COC(=O)c1cc(C(=CCCCCN=[N+]=[N-])c2cc(Cl)c(OC)c(C(=O)OC)c2)cc(Cl)c1OC | 19.1 | > 200 µM |  |
| CCOC(=O)C1C(c2ccc3c(c2)OCO3)c2c([nH][nH]c2=O)CC1(C)O (stereo not drawn) | > 200 | > 200 µM |  |
| COC(=O)c1cc(C(c2cc(C(=O)OC)c(O)cc2C)C(Cl)(Cl)Cl)c(C)cc1O | > 200 | 5.75 µM |  |
| Cc1cn(C2C[C@@H](/[N+]([O-])=C\c3ccccc3)C(CO[Si](C)(C)C(C)(C)C)O2)c(=O)[nH]c1=O (stereo partly drawn) | > 200 | 24.5 µM |  |
| CC1(C)CC(/C=C\c2coc3ccc(Cl)cc3c2=O)=C(C#N)C(=O)O1 | > 7.59 | > 7.59 µM |  |
| N#C/C(=C\c1ccccc1F)C(=O)O | > 676 | 302 µM |  |
| CC(C)[Si](Oc1cc2c3c(ccc2c(O)c1[C@@H](C)CO[Si](C)(C)C(C)(C)C)C(C)(C)CCC3)(C(C)C)C(C)C | > 200 | 40.7 µM |  |
| O=[N+]([O-])c1cccc2c([As](=O)(O)O)cccc12 | > 200 | 91.2 µM |  |
| CC#N.CC#N.COC(=O)[C@@H]1CN(C(=O)c2ccccc2)C(=O)[N-]1.COC(=O)[C@@H]1CN(C(=O)c2ccccc2)C(=O)[N-]1.COC(=O)[C@@H]1CN(C(=O)c2ccccc2)C(=O)[N-]1.COC(=O)[C@@H]1CN(C(=O)c2ccccc2)C(=O)[N-]1.[Rh+2].[Rh+2] | 10.7 | 87.1 µM |  |
